For one experiment, the target named is Galectin-1 (Homo sapiens, UniProt P09382). The conditions noted are these: T. Delaine 2016; read-out: affinity to Galectin-1; cited from earlier work.
Another experiment deals with Gal-1 (Homo sapiens, UniProt P09382). Nature of the experiment: Fluorescence anisotropy assay, compound as inhibitor of galectin / fluorescein tagged saccharide probe interaction. The format is binding. Here is the method:
(§1) The affinity of Example 1-29 for galectins were determined by a fluorescence anisotropy assay where the compound was used as an inhibitor of the interaction between galectin and a fluorescein tagged saccharide probe as described Sörme, P., Kahl-Knutsson, B., Huflejt, M., Nilsson, U. J., and Leffler H. (2004) Fluorescence polarization as an analytical tool to evaluate galectin-ligand interactions. Anal. Biochem. 334: 36-47, (Sörme et al., 2004) and Monovalent interactions of Galectin-1 By Salomonsson, Emma; Larumbe, Amaia; Tejler, Johan; Tullberg, Erik; Rydberg, Hanna; Sundin, Anders; Khabut, Areej; Frejd, Torbjorn; Lobsanov, Yuri D.; Rini, James M.; et al, From Biochemistry (2010), 49(44), 9518-9532, (Salomonsson et al., 2010).
On the technique in general: In fluorescence polarisation assays a small probe gives low polarisation when free and higher when bound to something large.

Another experiment concerns the target Gal-3 (Homo sapiens, UniProt P17931). The experiment is described as above. The class given is binding. Here is the method:
as §1

The next experiment relates to galectins. The conditions noted are these: cited from earlier work.

Bounds are passed on as bounds.

Chain of Gal-3 (P17931 whole entry): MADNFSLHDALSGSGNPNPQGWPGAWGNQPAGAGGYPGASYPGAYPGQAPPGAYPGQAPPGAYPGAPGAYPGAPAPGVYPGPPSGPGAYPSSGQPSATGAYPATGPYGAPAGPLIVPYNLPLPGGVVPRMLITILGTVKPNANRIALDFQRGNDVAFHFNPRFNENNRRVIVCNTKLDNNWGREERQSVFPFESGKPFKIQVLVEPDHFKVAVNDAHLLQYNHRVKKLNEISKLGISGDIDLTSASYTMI
Chain of Gal-1 (P09382 whole entry): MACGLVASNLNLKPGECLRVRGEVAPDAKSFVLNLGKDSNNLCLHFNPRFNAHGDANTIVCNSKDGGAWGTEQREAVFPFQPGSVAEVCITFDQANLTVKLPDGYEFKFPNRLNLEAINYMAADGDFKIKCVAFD
Chain of Galectin-1 (P09382 whole entry, species assumed): as the sequence (P09382 whole entry) above

In the case of `OCC1O[C@@H](SC2O[C@H](CO)C(O)C(n3cc(-c4ccsc4)nn3)[C@H]2O)C(O)C(n2cc(-c3ccsc3)nn2)[C@H]1O` (stereo partly drawn), the Kd at Galectin-1 was below 0.01 µM.
As for `Cc1nc([C@@H]2O[C@H](CO)[C@H](O)[C@H](n3cc(-c4nc(Cl)cs4)nn3)[C@H]2O)n(-c2ccc3nc(C)sc3c2)n1` [Example 23, 6-{5-{3-[4-(4-Chlorothiazol-2-yl)-1H-1,2,3-triazol-1-yl]-3-deoxy-β-D-galactopyranosyl}-3-methyl-1H-1,2,4-triazol-1-yl}-2-methylbenzothiazole], the Kd at Gal-1 came to 2.1 µM; at Gal-3, 0.14 µM.
`Cc1nc([C@@H]2O[C@H](CO)[C@H](O)[C@H](n3cc(-c4csc(N)n4)nn3)[C@H]2O)n(-c2ccc3nc(C)sc3c2)n1` [Example 24, 6-{5-{3-[4-(2-Aminothiazol-4-yl)-1H-1,2,3-triazol-1-yl]-3-deoxy-β-D-galactopyranosyl}-3-methyl-1H-1,2,4-triazol-1-yl}-2-methylbenzothiazole]: the Kd is 3.2 µM on Gal-1 and 2.6 µM on Gal-3.
As to `CO[C@@H]1[C@@H](n2cc(-c3nc(Cl)cs3)nn2)[C@@H](O)[C@@H](CO)O[C@H]1c1nnc(C)n1-c1ccc2nc(C)sc2c1` [Example 25, 6-{3-{3-[4-(4-Chlorothiazol-2-yl)-1H-1,2,3-triazol-1-yl]-3-deoxy-2-O-methyl-β-D-galactopyranosyl}-5-methyl-4H-1,2,4-triazol-4-yl}-2-methylbenzothiazole], the Kd on Gal-1 worked out at 0.34 µM; on Gal-3, 0.07 µM.
For `Cc1nc2ccc(-n3c(C)nnc3[C@@H]3O[C@H](CO)[C@H](O)[C@H](n4cc(-c5nc(Cl)cs5)nn4)[C@H]3O)cc2s1` [Example 26, 6-{3-{3-[4-(4-Chlorothiazol-2-yl)-1H-1,2,3-triazol-1-yl]-3-deoxy-β-D-galactopyranosyl}-5-methyl-4H-1,2,4-triazol-4-yl}-2-methylbenzothiazole], in that order: 0.59 µM and 0.065 µM.
For `Cc1nnc([C@@H]2OC(CO)[C@H](O)C(n3cc(-c4nc(Cl)cs4)nn3)C2O)n1-c1ccc2ncn(C)c2c1` (stereo partly drawn) [Example 27, 5-{3-{3-[4-(4-Chlorothiazol-2-yl)-1H-1,2,3-triazol-1-yl]-3-deoxy-β-D-galactopyranosyl}-5-methyl-4H-1,2,4-triazol-4-yl}-N-3-methylbenzimidazole], the Kd is 2.6 µM on Gal-1 and 0.036 µM on Gal-3.
With `Cc1nc2ccc(-n3nccc3[C@@H]3OC(CO)[C@H](O)C(n4cc(-c5nc(Cl)cs5)nn4)C3O)cc2s1` (stereo partly drawn) [Example 29], the Kd on Gal-1 was determined as 0.033 µM; on Gal-3, 0.6 µM.
For `O=C[C@H](O)[C@@H](O)[C@@H](O)[C@H](O)CO` [Galactose, D-galactose], the “affinity relative to lactose, times lower” value in the experiment on galectins (compared with lactose) is 50-100 times lower.
Turning to `OC[C@H]1O[C@@H](O[C@H]2[C@H](O)[C@@H](O)C(O)O[C@@H]2CO)[C@H](O)[C@@H](O)[C@H]1O` (stereo partly drawn) [lactose], the Kd at galectins (Leffler 2001, Leffler et al. 2004, read-out: Kd, all galectins) is 100 to 1000 µM.

Source of the values: patent US12441755B2, “Galactoside inhibitor of galectins” (GALECTO BIOTECH AB, priority 2019, dated 2025).
